Experimental data taken from PubChem BioAssay (NCI).
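Test compounds were applied to cells in 96-well plates for 48 hours at 5 doses. GI50: concentration for 50% inhibition of growth. TGI denotes the concentration required for complete inhibition of growth.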

Experiments:
Assay in all cases: NCI anticancer screen, dose series, 48 h
[1] = system: SNB-78 CNS
[2] = system: KM12 colon
[3] = system: DMS 114 small cell lung
[4] = system: SW-620 colon
[5] = system: ACHN renal
[6] = system: HT29 colon
[7] = system: SF-539 CNS
[8] = system: SF-268 CNS
[9] = system: MCF7 breast
[10] = system: BT-549 breast

Structure (SMILES): COC/C=C\COC
- TGI [1]: > 100 µM
- TGI [2]: > 100 µM
- TGI [3]: > 100 µM
- TGI [4]: > 100 µM
- TGI [5]: > 100 µM
- TGI [6]: > 100 µM

Structure (SMILES): C=C(CC(NC(=O)c1ccc(C(CC)Cc2cnc3nc(N)nc(N)c3n2)cc1)C(=O)O)C(=O)O (stereo not drawn)
- TGI [1]: > 100 µM
- TGI [7]: > 100 µM
- GI50 [8]: 0.0252 µM
- TGI [8]: > 100 µM
- TGI [5]: > 100 µM
- TGI [6]: > 100 µM

Structure (SMILES): CCC[CH2][Sn]([Cl])([Cl])[CH2]CCC
- GI50 [1]: 0.333 µM
- TGI [1]: 1.43 µM
- GI50 [2]: 1.35 µM
- TGI [2]: 2.81 µM
- GI50 [7]: 0.87 µM
- TGI [7]: 2.19 µM
- GI50 [8]: 0.457 µM
- TGI [8]: 1.77 µM
- GI50 [4]: 0.333 µM
- TGI [4]: 1.24 µM
- GI50 [5]: 0.449 µM
- TGI [5]: 1.62 µM
- GI50 [6]: 1.44 µM
- TGI [6]: 2.81 µM

Structure (SMILES): Cc1ccc(NC(=O)CCc2nc(N)nc(N)c2-c2ccccc2)cc1C
- TGI [1]: > 100 µM
- TGI [2]: > 100 µM
- TGI [7]: > 100 µM
- TGI [3]: > 100 µM
- TGI [8]: > 100 µM
- TGI [4]: > 100 µM
- TGI [5]: > 100 µM
- TGI [6]: > 100 µM

Structure (SMILES): COc1ccc(OC)c(NC(=O)CCC/C(CC(=O)c2ccc(O)c(OC)c2)=N\Nc2nnc(C)n2N)c1
- TGI [2]: > 100 µM
- TGI [7]: > 100 µM
- TGI [3]: > 100 µM
- TGI [8]: > 100 µM
- TGI [4]: > 100 µM
- TGI [5]: > 100 µM
- TGI [6]: > 100 µM

Structure (SMILES): C=CCNc1nc2c(s1)C(=O)c1ccccc1C2=O
- TGI [9]: 24.4 µM
- TGI [1]: 72.9 µM
- TGI [2]: 28.1 µM
- TGI [7]: 16.7 µM
- TGI [3]: 3.27 µM
- TGI [8]: 26 µM
- TGI [4]: 32.4 µM
- TGI [5]: 20.2 µM
- TGI [6]: 50.2 µM

Structure (SMILES): CC(C)(C)c1cc(C(O)(C(F)(F)F)C(F)(F)F)c2c(c1)C(C(F)(F)F)(C(F)(F)F)OC(C)(C(C)(C)C)N2 (stereo not drawn)
- TGI [1]: 99 µM
- TGI [2]: > 100 µM
- TGI [3]: 8.64 µM
- TGI [4]: 44.6 µM
- TGI [5]: 12.1 µM
- TGI [6]: 22.7 µM

Structure (SMILES): CCc1ccc(NC(=O)NC(=O)c2ccccc2[N+](=O)[O-])cc1Oc1ncc(Cl)cn1
- TGI [9]: > 100 µM
- TGI [1]: > 100 µM
- TGI [2]: 0.728 µM
- TGI [3]: > 100 µM
- TGI [8]: > 16.9 µM
- TGI [10]: 35.7 µM
- TGI [4]: > 100 µM
- TGI [5]: > 100 µM
- TGI [6]: 0.854 µM

Structure (SMILES): CCOC(=O)C(=O)Nc1ccccc1C
- TGI [1]: > 100 µM
- TGI [7]: > 100 µM
- TGI [3]: > 100 µM
- TGI [8]: > 100 µM
- TGI [4]: > 100 µM
- TGI [5]: > 100 µM

Structure (SMILES): NCCSSCCN
- TGI [9]: > 100 µM
- TGI [1]: > 100 µM
- TGI [2]: > 100 µM
- TGI [7]: > 100 µM
- TGI [3]: > 100 µM
- TGI [8]: > 100 µM
- TGI [10]: > 100 µM
- TGI [4]: > 100 µM
- TGI [5]: > 100 µM
- TGI [6]: > 100 µM

Structure (SMILES): CC(Oc1ccc2c(-c3ccccc3)cc(=O)oc2c1)C(=O)O (stereo not drawn)
- TGI [1]: > 100 µM
- TGI [2]: > 100 µM
- TGI [7]: > 100 µM
- TGI [3]: > 100 µM
- TGI [8]: > 100 µM
- TGI [4]: > 100 µM
- TGI [5]: > 100 µM
- TGI [6]: > 100 µM

Structure (SMILES): O=C(Cc1nc2ccccc2c(=O)n1-c1ccccc1Cl)c1ccncc1
- TGI [1]: > 100 µM
- TGI [2]: > 100 µM
- TGI [7]: > 100 µM
- TGI [3]: > 100 µM
- TGI [8]: > 100 µM
- TGI [4]: > 100 µM
- TGI [5]: > 100 µM
- TGI [6]: > 100 µM

Structure (SMILES): CCC(=O)c1c(NOC2OCC(OC(C)=O)C(OC(C)=O)C2OC(C)=O)nc(OC)n(C)c1=O (stereo not drawn)
- TGI [1]: > 100 µM
- TGI [2]: > 100 µM
- TGI [7]: > 100 µM
- TGI [3]: > 100 µM
- TGI [8]: > 100 µM
- TGI [4]: > 100 µM
- TGI [5]: > 100 µM
- TGI [6]: > 100 µM

Structure (SMILES): COc1ccc(NC(=O)CC2SC(=Nc3ccccc3C)NC2=O)c([N+](=O)[O-])c1 (stereo not drawn)
- TGI [1]: > 100 µM
- TGI [2]: > 100 µM
- TGI [7]: > 100 µM
- TGI [8]: > 100 µM
- TGI [4]: > 100 µM
- TGI [5]: > 100 µM
- TGI [6]: > 100 µM

Structure (SMILES): COc1ccc(NC(=O)/C(=C/c2ccccc2)C(C)=O)cc1
- TGI [1]: 44.8 µM
- TGI [2]: 27.5 µM
- TGI [7]: 28.7 µM
- TGI [3]: 30.7 µM
- TGI [8]: 34.3 µM
- TGI [4]: 35.1 µM
- TGI [5]: 42.2 µM
- TGI [6]: 28.5 µM

Structure (SMILES): COC(=O)/C=C(C)/C=C/C1OC(C)OCC1O (stereo not drawn)
- TGI [1]: > 100 µM
- TGI [2]: > 100 µM
- TGI [7]: > 100 µM
- TGI [3]: > 100 µM
- TGI [8]: > 100 µM
- TGI [4]: > 100 µM
- TGI [5]: > 100 µM
- TGI [6]: > 100 µM

Structure (SMILES): O=C(CCC(=O)Nc1ccc(Cl)c(Cl)c1)CC(=O)c1ccc(Br)cc1
- TGI [1]: > 100 µM
- TGI [2]: > 100 µM
- TGI [7]: > 100 µM
- TGI [3]: > 100 µM
- TGI [8]: > 100 µM
- TGI [4]: > 100 µM
- TGI [5]: > 100 µM
- TGI [6]: > 100 µM

Structure (SMILES): CCOC(=O)C1=C(Nc2ccc(Cl)cc2Cl)OCC1=O
- TGI [1]: > 100 µM
- TGI [2]: > 100 µM
- TGI [7]: > 100 µM
- TGI [8]: > 100 µM
- TGI [4]: > 100 µM
- TGI [5]: > 100 µM
- TGI [6]: > 100 µM

Structure (SMILES): CC1=CC(=O)CC2(C)CC[C@@H]3C[C@]12OC3(C)C (stereo partly drawn)
- TGI [1]: > 100 µM
- TGI [2]: > 100 µM
- TGI [7]: > 100 µM
- TGI [3]: > 100 µM
- TGI [8]: > 100 µM
- TGI [4]: > 100 µM
- TGI [5]: > 100 µM
- TGI [6]: > 100 µM

Structure (SMILES): CCC1CC2C(=O)N(c3ccccc3)C(=O)C2c2[nH]c3ccccc3c21 (stereo not drawn)
- TGI [1]: 75.1 µM
- TGI [2]: > 100 µM
- TGI [3]: 35.7 µM
- TGI [8]: 80 µM
- TGI [4]: > 100 µM
- TGI [5]: > 100 µM
- TGI [6]: > 100 µM
